For assay [1], the target named is T1, Human recombinant prostanoid EP4 receptors (Homo sapiens, UniProt P35408).
T1 construct: host or cells: Chem-1 cells
Description: Eurofins Hit Profiling Screen PP70: prostanoid EP4 receptor binding. As to conditions: 5 μM. The method, then: (§1) These experiments were performed by Eurofins Scientific, and the methods below are from this company's information. Membrane protein/membrane amounts may have varied, and the concentrations used were adjusted as necessary. KC289 was tested at 5 μM.
Human recombinant prostanoid EP4 receptors expressed in Chem‐1 cells were used in modified MES buffer pH 6.0. A 3 μg·ml^−1 (see footnote 1) aliquot was incubated with 1 nM [^3H]PGE2 for 120 min at 25°C. Non‐specific binding was estimated in the presence of 10 μM PGE2 . Receptors were filtered and washed, and the filters were then counted to determine [^3H]PGE2 specifically bound.

Assay [2] deals with T2, human adenosine A2A receptors (Homo sapiens, UniProt P29274).
T2 construct: host or cells: HEK 293 membranes
T2 sequence (P29274 whole entry): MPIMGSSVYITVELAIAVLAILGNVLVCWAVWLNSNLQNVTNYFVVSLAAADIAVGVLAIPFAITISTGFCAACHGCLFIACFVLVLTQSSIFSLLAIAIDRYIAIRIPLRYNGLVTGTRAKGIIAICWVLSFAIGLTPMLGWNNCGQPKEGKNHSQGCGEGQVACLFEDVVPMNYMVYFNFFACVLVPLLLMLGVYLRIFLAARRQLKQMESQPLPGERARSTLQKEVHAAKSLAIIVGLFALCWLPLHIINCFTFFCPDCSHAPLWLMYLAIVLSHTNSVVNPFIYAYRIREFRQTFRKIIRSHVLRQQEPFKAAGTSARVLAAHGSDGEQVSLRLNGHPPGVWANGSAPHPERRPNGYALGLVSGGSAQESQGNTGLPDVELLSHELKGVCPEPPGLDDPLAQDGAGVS
Description: Eurofins Hit Profiling Screen PP70: adenosine A2A receptor binding. The conditions noted are these: 5 μM. The method, then: as §1
This assay measured binding of [^3H]CGS‐21680 to human adenosine A2A receptors. HEK 293 cells stably transfected with a plasmid encoding the human adenosine A2A receptor were used to prepare membranes in modified Tris–HCl pH 7.4 buffer using standard techniques. A 15 μg aliquot of membrane was incubated with […] [^3H]CGS‐21680 for 90 min at 25°C. Non‐specific binding was estimated in the presence of 50 μM NECA. Membranes were filtered and washed three times, and the filters were counted to determine [^3H]CGS‐21680 specifically bound.

The subject of assay [3] is 30 proteins including ion channels and receptors. Nature of the assay: Eurofins Hit Profiling Screen PP70: remaining targets. In kind it is binding. The conditions noted are these: 5 μM; targets other than A2A and EP4. The method, then: as §1
The test system of another assay is mouse PIEZO2 (mPIEZO2). Also on record: method as in Syeda et al., 2015. As to conditions: mPIEZO2 overexpressed in HEK 293 cells; ref Syeda et al., 2015; cited from earlier work.
For another assay, the target named is T3, mPIEZO1 (Mus musculus, UniProt E2JF22).
T3 construct: expressed in transfected cells
T3 sequence (E2JF22 whole entry): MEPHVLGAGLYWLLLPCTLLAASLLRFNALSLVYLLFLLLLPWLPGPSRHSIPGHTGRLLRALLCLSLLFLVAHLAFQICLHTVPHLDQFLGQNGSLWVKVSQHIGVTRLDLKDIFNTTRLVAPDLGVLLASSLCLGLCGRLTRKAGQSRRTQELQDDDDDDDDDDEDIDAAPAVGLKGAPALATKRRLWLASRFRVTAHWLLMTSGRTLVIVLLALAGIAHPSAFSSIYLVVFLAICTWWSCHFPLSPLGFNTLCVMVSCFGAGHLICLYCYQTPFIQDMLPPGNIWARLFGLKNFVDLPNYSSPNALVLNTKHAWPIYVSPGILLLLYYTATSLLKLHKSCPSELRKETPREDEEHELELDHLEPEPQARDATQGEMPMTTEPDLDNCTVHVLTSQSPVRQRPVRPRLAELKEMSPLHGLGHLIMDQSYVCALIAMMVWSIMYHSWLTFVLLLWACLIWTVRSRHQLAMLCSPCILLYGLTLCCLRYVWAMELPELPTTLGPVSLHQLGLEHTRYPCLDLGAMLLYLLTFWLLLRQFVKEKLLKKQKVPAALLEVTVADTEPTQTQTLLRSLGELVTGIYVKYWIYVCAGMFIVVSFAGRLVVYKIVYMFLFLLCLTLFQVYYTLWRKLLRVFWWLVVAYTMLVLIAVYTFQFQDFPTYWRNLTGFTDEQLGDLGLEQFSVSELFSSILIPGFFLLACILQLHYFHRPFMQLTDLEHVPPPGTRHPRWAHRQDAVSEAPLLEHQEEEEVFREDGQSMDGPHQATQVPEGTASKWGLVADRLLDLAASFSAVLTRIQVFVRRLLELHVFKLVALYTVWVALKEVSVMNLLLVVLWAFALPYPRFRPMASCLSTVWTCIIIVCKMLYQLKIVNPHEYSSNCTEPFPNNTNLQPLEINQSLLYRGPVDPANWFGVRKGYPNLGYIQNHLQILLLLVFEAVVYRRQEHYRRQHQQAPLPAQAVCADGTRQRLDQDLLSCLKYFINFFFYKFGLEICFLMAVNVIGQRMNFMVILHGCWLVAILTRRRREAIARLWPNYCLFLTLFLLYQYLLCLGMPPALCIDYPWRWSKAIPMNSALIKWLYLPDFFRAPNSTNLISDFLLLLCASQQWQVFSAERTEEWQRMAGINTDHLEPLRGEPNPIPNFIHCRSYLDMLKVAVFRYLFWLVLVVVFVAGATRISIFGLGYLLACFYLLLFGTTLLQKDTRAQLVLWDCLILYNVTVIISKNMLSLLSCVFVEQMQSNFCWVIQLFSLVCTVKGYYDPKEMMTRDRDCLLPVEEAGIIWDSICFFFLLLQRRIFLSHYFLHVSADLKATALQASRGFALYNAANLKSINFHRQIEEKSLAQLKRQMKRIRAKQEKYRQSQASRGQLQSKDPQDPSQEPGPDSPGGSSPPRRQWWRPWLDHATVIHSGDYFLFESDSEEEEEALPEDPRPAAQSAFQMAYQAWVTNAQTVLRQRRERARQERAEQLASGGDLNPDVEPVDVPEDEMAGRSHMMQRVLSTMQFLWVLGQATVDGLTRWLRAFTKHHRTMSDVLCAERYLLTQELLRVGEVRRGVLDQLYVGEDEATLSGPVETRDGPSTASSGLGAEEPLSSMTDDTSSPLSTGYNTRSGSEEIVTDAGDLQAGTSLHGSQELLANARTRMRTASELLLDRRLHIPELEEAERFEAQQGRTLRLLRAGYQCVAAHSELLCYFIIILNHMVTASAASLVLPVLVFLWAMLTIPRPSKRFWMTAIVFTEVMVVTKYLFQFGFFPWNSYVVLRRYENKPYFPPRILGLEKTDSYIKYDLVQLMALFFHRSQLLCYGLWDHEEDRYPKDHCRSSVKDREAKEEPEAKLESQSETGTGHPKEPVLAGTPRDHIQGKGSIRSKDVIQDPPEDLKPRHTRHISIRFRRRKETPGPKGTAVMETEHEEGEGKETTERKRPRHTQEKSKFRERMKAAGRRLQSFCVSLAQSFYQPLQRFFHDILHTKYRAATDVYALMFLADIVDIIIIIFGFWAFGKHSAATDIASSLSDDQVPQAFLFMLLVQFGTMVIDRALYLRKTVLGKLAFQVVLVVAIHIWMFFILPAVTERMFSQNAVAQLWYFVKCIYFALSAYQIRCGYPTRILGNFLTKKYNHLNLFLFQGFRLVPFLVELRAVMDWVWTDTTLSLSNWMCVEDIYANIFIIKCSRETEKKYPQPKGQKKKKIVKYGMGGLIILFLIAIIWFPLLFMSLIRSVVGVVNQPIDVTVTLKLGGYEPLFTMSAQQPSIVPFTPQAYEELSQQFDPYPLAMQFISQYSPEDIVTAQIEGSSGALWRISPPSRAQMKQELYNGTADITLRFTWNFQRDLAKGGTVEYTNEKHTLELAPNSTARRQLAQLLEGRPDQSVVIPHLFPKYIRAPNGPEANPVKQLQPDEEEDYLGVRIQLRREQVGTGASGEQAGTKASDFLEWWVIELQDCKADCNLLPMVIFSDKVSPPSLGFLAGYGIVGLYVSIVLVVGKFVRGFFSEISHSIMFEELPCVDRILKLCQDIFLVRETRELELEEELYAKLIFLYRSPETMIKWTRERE
Nature of the assay: Manual whole-cell patch clamp on mPIEZO1-TREx cells. In kind it is cell-based. As to conditions: 10 μM, ramp −100 to +100 mV. The method, then:
(§2) For manual patch clamp, macroscopic transmembrane ionic currents of mPIEZO1 HEK‐TREx cells (or control HEK‐TREx cells) were recorded using the standard whole‐cell configuration for patch clamp in voltage‐clamp mode. For studies of HEK 293 cells overexpressing PIEZO2 (or control HEK 293 cells), the outside‐out patch configuration was used in voltage‐clamp mode. All recordings were made using an Axopatch 200B amplifier (Axon Instruments, Inc., USA) equipped with Digidata 1550B hosted by a PC running pClamp 10.7 software (Molecular Devices, USA) at room temperature. The cells were maintained during the experiment in an external salt buffer solution (SBS) of the following composition: 135 mM NaCl, 5 mM KCl, 1.5 mM CaCl2, 1.2 mM MgCl2, 8 mM D‐glucose and 10 mM HEPES (titrated to pH 7.4 with NaOH). […] For outside‐out experiments, Na2ATP and Na2GTP were omitted. For whole‐cell experiments, cells were held at 0 mV and current amplitude was monitored by application of ramp voltage protocol from −100 to +100 mV at 10 s intervals. Currents were measured at −100 and +100 mV. Test compounds were applied in the external solution using a bath perfusion system. SBS flow was applied to the cells for 1 min before the addition of compounds. […] Data were analysed and plotted using pClamp 10.7 and Microcal Origin 2018 (Microcal Software, USA).

Assay [4] relates to HEK‐TREx control (null) cells. Nature of the assay: Manual whole-cell patch clamp on control cells. The class given is cell-based, human. The conditions noted are these: 10 μM, HEK-TREx cells without PIEZO1 transfection. The method, then: as §2
In general terms: In patch-clamp work, channel activity is measured electrically.

Entries after “also recorded” stand apart in the source; their conditions may differ.

T1 sequence (P35408 whole entry): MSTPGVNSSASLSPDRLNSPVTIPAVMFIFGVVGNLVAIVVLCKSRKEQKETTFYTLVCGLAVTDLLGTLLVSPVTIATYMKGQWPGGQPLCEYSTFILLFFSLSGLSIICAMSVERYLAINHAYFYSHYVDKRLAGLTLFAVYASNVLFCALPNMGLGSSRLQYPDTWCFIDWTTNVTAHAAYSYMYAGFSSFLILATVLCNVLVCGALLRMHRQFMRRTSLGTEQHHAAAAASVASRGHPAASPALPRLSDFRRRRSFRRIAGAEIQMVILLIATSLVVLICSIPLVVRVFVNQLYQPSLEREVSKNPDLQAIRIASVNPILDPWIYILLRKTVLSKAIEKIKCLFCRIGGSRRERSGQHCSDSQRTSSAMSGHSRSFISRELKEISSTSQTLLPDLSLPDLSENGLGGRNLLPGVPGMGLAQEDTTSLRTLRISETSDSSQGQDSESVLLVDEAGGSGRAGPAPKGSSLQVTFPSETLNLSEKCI

On to `O=C([O-])c1ccc(-c2nnc(SCc3c(Cl)cccc3Cl)s2)cc1.[K+]` [KC289], for which the “Binding to prostanoid EP4 receptors” value in assay [1] is on record as “modest interaction”. For the same molecule, in assay [2], the “Binding to adenosine A2A receptors” value is recorded as “modest interaction”. In addition, the “Binding to the other proteins of the screen” value in assay [3] is reported as “little or no binding”.

`Clc1cccc(Cl)c1CSc1nnc(-c2cnccn2)s1` [Yoda1, 2‐[5‐[[(2,6‐dichlorophenyl)methyl]thio]‐1,3,4‐thiadiazol‐2‐yl]pyrazine]: the “Activation of PIEZO2” value with mouse PIEZO2 (mPIEZO2) is reported as “does not activate; also recorded: not to activate”.

For the molecule `O=C(O)c1ccc(-c2nnc(SCc3c(Cl)cccc3Cl)s2)cc1` [KC159], the Whole-cell current result on mPIEZO1 is “increases current”. Also, in assay [4], the “Whole-cell current in null cells” value was “not null cells”.

The record behind these values is article PMC10952572, “Improved PIEZO1 agonism through 4‐benzoic acid modification of Yoda1” (British Journal of Pharmacology, 2023).
